# In patent publication US11427548B2 (Arvinas Operations, Inc., priority 2015, dated 2022):
# Where two headings read alike, the source gives them in different places.
# Target: T1, Androgen Receptor (Homo sapiens, UniProt P10275)
# T1 construct: endogenous in cells; host or cells: VCaP cells
# T1 sequence (P10275 1-920): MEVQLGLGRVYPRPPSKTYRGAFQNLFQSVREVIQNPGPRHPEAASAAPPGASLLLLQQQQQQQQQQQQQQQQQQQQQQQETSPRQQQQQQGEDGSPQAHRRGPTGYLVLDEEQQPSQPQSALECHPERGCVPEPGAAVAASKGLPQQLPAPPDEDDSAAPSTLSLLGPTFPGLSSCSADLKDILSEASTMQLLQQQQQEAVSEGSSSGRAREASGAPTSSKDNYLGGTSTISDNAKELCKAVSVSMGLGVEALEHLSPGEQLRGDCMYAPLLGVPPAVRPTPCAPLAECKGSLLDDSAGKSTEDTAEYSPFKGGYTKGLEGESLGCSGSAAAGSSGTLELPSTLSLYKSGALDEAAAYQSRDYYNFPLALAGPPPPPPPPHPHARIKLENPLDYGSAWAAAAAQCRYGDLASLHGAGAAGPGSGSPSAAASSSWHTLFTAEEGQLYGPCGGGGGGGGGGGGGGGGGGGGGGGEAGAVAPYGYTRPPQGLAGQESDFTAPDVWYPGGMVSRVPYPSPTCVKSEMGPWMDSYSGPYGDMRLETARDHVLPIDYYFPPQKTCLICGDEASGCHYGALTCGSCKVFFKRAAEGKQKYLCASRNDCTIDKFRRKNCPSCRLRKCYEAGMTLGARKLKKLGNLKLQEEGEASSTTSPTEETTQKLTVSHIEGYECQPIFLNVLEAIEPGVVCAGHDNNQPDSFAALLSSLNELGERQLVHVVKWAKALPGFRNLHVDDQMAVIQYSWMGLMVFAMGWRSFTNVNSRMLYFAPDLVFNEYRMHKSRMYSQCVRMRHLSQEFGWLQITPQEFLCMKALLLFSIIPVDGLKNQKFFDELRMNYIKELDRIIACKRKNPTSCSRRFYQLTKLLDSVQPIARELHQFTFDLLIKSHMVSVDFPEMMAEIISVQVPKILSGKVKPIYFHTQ
# Assay: Androgen Receptor ELISA assay (PathScan AR ELISA) in VCaP cells: AR degradation, Dmax and DC50
# Format: cell-based
# Summary of the method: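 VCaP cells, 30,000/well, grown ≥3 days in phenol red-free RPMI with 5% charcoal-stripped FBS; compound added in 0.1% DMSO with 0.1 nM R1881, 7 half-log doses, 24 h. Lysate AR quantified by PathScan sandwich ELISA, HRP/TMB read at 450 nm, giving DC50 and Dmax.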
# [1] = VCaP cells; Table 35; read-out: VCaP DC50
# [2] = VCaP, VCaP cells; Table 35; read-out: VCaP Dmax (%)
# [3] = VCaP cells; Table 36; read-out: VCaP DC50
# [4] = VCaP, VCaP cells; Table 36; read-out: VCaP Dmax (%)
# [5] = read-out: VCaP DC50; VCaP cells; Table 36
# [6] = VCaP cells; Table 34; read-out: VCaP DC50
# [7] = VCaP, VCaP cells; Table 34; read-out: VCaP Dmax (%)
compound,measurement,setting,value
"CC(C)(C)[C@H](NC(=O)COCCOCCCCOc1ccc(C(=O)N[C@H]2C(C)(C)[C@H](Oc3ccc(C#N)c(Cl)c3)C2(C)C)cc1)C(=O)N1C[C@H](O)C[C@H]1C(=O)NCc1ccc(-c2cncs2)cc1 [Example 162, (2S,4R)-1-[(2S)-3,3-dimethyl-2-(2-{2-[4-(4-{[trans-3-(3-chloro-4-cyanophenoxy)-2,2,4,4-tetramethylcyclobutyl]carbamoyl}phenoxy)butoxy]ethoxy}acetamido)butanoyl]-4-hydroxy-N-{[4-(1,3-thiazol-5-yl)phenyl]methyl}pyrrolidine-2-carboxamide]",Dmax,"VCaP, highest percentage of Androgen Receptor degradation observed, VCaP cells (Table 32); read-out: VCaP Dmax (%)",> 71%
same,DC50,"concentration that caused 50% Androgen Receptor degradation, VCaP cells (Table 32); read-out: VCaP DC50",< 50 nM
CC(C)(C)[C@H](NC(=O)COCCCCCNc1ccc(C(=O)N[C@H]2C(C)(C)[C@H](Oc3ccc(C#N)c(Cl)c3)C2(C)C)cn1)C(=O)N1C[C@H](O)C[C@H]1C(=O)NCc1ccc(C#N)cc1 [Example 551],DC50,[1],< 50 nM
same,Dmax,[2],51 to 70%
Cc1ncsc1-c1ccc([C@H](C)NC(=O)C2C[C@@H](O)CN2C(=O)[C@@H](NC(=O)COCCC2(CCNc3ccc(C(=O)N[C@H]4C(C)(C)[C@H](Oc5ccc(C#N)c(Cl)c5)C4(C)C)cc3)COC2)C(C)(C)C)cc1 (stereo partly drawn) [Example 642],DC50,[3],< 50 nM
same,Dmax,[4],> 71%
"Cc1ncsc1-c1ccc([C@H](C)NC(=O)[C@@H]2C[C@@H](O)CN2C(=O)C(NC(=O)COCCCOCC[C@@H](O)CCOc2ccc(N3C(=S)N(c4ccc(C#N)c(C(F)(F)F)c4)C(=O)C3(C)C)cc2)C(C)(C)C)cc1 (stereo partly drawn) [Example 613, 1-(2-(2-(3-((5-(4-(3-(4-cyano-3-(trifluoromethyl)phenyl)-5,5-dimethyl-4-oxo-2-thioxoimidazolidin-1-yl)phenoxy)-3-hydroxypentyl)oxy)pro-poxy)acetamido)-3,3-dimethylbutanoyl)-4-hydroxy-N-(1-(4-(4-methylthiazol-5-yl)phenyl)ethyl)pyrrolidine-2-carboxamide]",Dmax,"VCaP, read-out: VCaP Dmax (%)",26 to 50%
same,DC50,[5],> 501 nM
Cc1ncsc1-c1ccc(CNC(=O)[C@@H]2C[C@@H](O)CN2C(=O)[C@@H](NC(=O)CNC(=O)CCCOc2ccc(C(=O)N[C@H]3C(C)(C)[C@H](Oc4ccc(C#N)c(Cl)c4)C3(C)C)cc2)C(C)(C)C)cc1 [Example 393],DC50,[6],< 50 nM
same,Dmax,[7],51 to 70%
Cc1ncsc1-c1ccc([C@H](C)NC(=O)[C@@H]2C[C@@H](O)CN2C(=O)[C@@H](NC(=O)COCC2CCN(c3ccc(C(=O)N[C@H]4C(C)(C)[C@H](Oc5ccc(C#N)c(Cl)c5)C4(C)C)cn3)CC2)C(C)(C)C)cc1 [Example 442],DC50,[1],< 50 nM
same,Dmax,[2],> 71%
"CO[C@@H]1C[C@@H](C(=O)N(C)Cc2ccc(-c3scnc3C)cc2)N(C(=O)[C@@H](N(C)C(=O)COCCCCCN(C)c2ccc(C(=O)N(C)[C@H]3C(C)(C)[C@H](Oc4ccc(C#N)c(C(F)(F)F)c4)C3(C)C)nc2)C(C)(C)C)C1 [Example 709, N-((1r,3r)-3-(4-cyano-3-(trifluoromethyl)phenoxy)-2,2,4,4-tetramethylcyclobutyl)-5-((5-(2-(((S)-1-((2S,4R)-4-methoxy-2-(methyl(4-(4-methylthiazol-5-yl)benzyl)carbamoyl)pyrrolidin-1-yl)-3,3-dimethyl-1-oxobutan-2-yl)(methyl)amino)-2-oxoethoxy)pentyl)(meth-yl)amino)-N-methylpicolinamide]",DC50,[3],> 501 nM
same,Dmax,[4],< 25%
CCc1ncsc1-c1ccc(CNC(=O)[C@@H]2C[C@@H](O)CN2C(=O)[C@@H](NC(=O)COCCCCNc2ccc(C(=O)N[C@H]3C(C)(C)[C@H](Oc4ccc(C#N)c(Cl)c4)C3(C)C)cc2)C(C)(C)C)cc1 [Example 415],DC50,[6],< 50 nM
same,Dmax,[7],> 71%
"Cc1cn(-c2ccc([C@H](C)NC(=O)[C@@H]3C[C@@H](O)CN3C(=O)[C@@H](NC(=O)COCCCOCCCCCOc3ccc(N4C(=S)N(c5ccc(C#N)c(C(F)(F)F)c5)C(=O)C4(C)C)cc3)C(C)(C)C)cc2)cn1 [Example 663, (2S,4R)-1-((S)-2-(2-(3-((5-(4-(3-(4-cyano-3-(trifluoromethyl)phenyl)-5,5-dimethyl-4-oxo-2-thioxoimidazolidin-1-yl)phenoxy)pentyl)oxy)propoxy)acetamido)-3,3-dimethylbutanoyl)-4-hydroxy-N-((S)-1-(4-(4-methyl-1H-imidazol-1-yl)phenyl)ethyl)pyrrolidine-2-carboxamide]",Dmax,"VCaP, read-out: VCaP Dmax (%)",< 25%
same,DC50,[5],> 501 nM
CC(C)(C)[C@H](NC(=O)COCCCCCNc1ccc(C(=O)N[C@H]2C(C)(C)[C@H](Oc3ccc(C#N)c(Cl)c3)C2(C)C)cc1)C(=O)N1C[C@H](O)C[C@H]1C(=O)NCc1ccc(Cl)cc1 [Example 552],DC50,[1],< 50 nM
same,Dmax,[2],51 to 70%
Cc1ncsc1-c1ccc([C@H](C)NC(=O)[C@@H]2C[C@@H](O)CN2C(=O)[C@@H](NC(=O)CNC(=O)c2ccc(Oc3ccc(C(=O)N[C@H]4C(C)(C)[C@H](Oc5ccc(C#N)c(Cl)c5)C4(C)C)cn3)cc2)C(C)(C)C)nc1 [Example 432],DC50,[1],> 501 nM
same,Dmax,[2],< 25%
"Cc1ncsc1-c1ccc([C@@H](NC(=O)[C@@H]2C[C@@H](O)CN2C(=O)[C@@H](NC(=O)CN2CCN(CCCc3ccc(C(=O)N[C@H]4C(C)(C)[C@H](Oc5ccc(C#N)c(C(F)(F)F)c5)C4(C)C)cc3)CC2)C(C)(C)C)C2COC2)cc1 [Example 713, (2S,4R)-1-((S)-2-(2-(4-(3-(4-(((1r,3r)-3-(4-cyano-3-(trifluoromethyl)phenoxy)-2,2,4,4-tetramethylcyclobutyl)carbamoyl)phenyl)propyl)piperazin-1-yl)acetamido)-3,3-dimethylbutanoyl)-4-hydroxy-N-((S)-(4-(4-methylthiazol-5-yl)phenyl)(oxetan-3-yl)methyl)pyrrolidine-2-carboxamide]",DC50,[3],< 50 nM
same,Dmax,"VCaP, read-out: VCaP Dmax (%)",< 25%
"Cc1ncsc1-c1ccc(C(C)NC(=O)[C@@H]2C[C@@H](OCOC(=O)OC(C)C)CN2C(=O)[C@@H](NC(=O)COCCCCCNc2ccc(C(=O)N[C@H]3C(C)(C)[C@H](Oc4ccc(C#N)c(Cl)c4)C3(C)C)cc2)C(C)(C)C)cc1 (stereo partly drawn) [Example 653, (((3R,5S)-1-((S)-2-(2-((5-((4-(((1r,3r)-3-(3-chloro-4-cyanophenoxy)-2,2,4,4-tetramethylcyclobutyl)carbamoyl)phenyl)amino)pentyl)oxy)acetamido)-3,3-dimethylbutanoyl)-5-(((S)-1-(4-(4-methylthiazol-5-yl)phenyl)ethyl)carbam-oyl)pyrrolidin-3-yl)oxy)methyl isopropyl carbonate]",DC50,[3],< 50 nM
same,Dmax,[4],51 to 70%
"CC(NC(=O)C1CC(O)CN1C(=O)C(c1cc(OCCN2CCN(c3ccc(C(=O)NC4C(C)(C)C(Oc5ccc(C#N)c(Cl)c5)C4(C)C)cn3)CC2)no1)C(C)C)c1ccc(C#N)cc1 [Example 697, N-((1r,3r)-3-(3-chloro-4-cyanophenoxy)-2,2,4,4-tetramethylcyclobutyl)-6-(4-(2-((5-((R)-1-((2S,4R)-2-(((S)-1-(4-cyanophenyl)ethyl)carb-amoyl)-4-hydroxypyrrolidin-1-yl)-3-methyl-1-oxobutan-2-yl)isoxazol-3-yl)oxy)ethyl)piperazin-1-yl)nicotinamide]",DC50,[3],< 50 nM
same,Dmax,"VCaP, read-out: VCaP Dmax (%), VCaP cells; Table 36",26 to 50%
"Cc1ncsc1-c1ccc([C@H](C)NC(=O)[C@@H]2C[C@@H](O)CN2C(=O)[C@@H](NC(=O)CCCCN2C[C@H]3C[C@@H]2CN3c2ccc(C(=O)N[C@H]3C[C@H](Oc4ccc(C#N)c(Cl)c4)C3)cn2)C(C)(C)C)cc1 [Example 798, N-((1r,3R)-3-(3-chloro-4-cyanophenoxy)cyclobutyl)-6-((1R,4R)-5-(5-(((S)-1-((2S,4R)-4-hydroxy-2-(((S)-1-(4-(4-methylthiazol-5-yl)phenyl)ethyl)carbamoyl)pyrrolidin-1-yl)-3,3-dimethyl-1-oxobutan-2-yl)amino)-5-oxopentyl)-2,5-diazabicyclo[2.2.1]heptan-2-yl)nicotinamide]",DC50,[3],> 501 nM
same,Dmax,[4],< 25%
